{"source": "patent US20210267978A1", "about": "“NANOPARTICLE FORMULATIONS OF IKE AND METHODS OF USE THEREOF” (The Trustees of Columbia University in the City of New York, priority 2018, published 2021)", "key": {"[1]": {"tested_on": "SUDHL6 subcutaneous xenografts", "experiment": "IKE efficacy study, tumor volume", "assay_type": "in vivo, NCG mice", "details": "starting from day 9 of treatment", "description": "(§1) IKE was dissolved in 5% DMSO/95% HBSS at pH 4 to create a 4 mg/mL solution. 5% DMSO/95% HBSS at pH 4 was used as vehicle 1. IKE PEG-PLGA nanoparticles and unfunctionalized PEG-PLGA nanoparticles (without IKE loading) (vehicle 2) prepared with a NanoAssemblr were dialyzed with deionized water overnight, the water was changed at least twice. Dialyzed IKE-PEG-PLGA nanoparticles and unfunctional PEG-PLGA nanoparticles were concentrated by Amicon Ultra-15 Centrifugal Filter Units to create a solution with 80 mg/mL PEG-PLGA nanoparticles. All above solutions were sterilized by filter through a 0.2 μm syringe filter.\n(§2) NCG mice, 6-weeks old, were injected with 10 million SUDHLO-6 cells subcutaneously. […] Tumor volume was measured daily with electronic caliper and calculated using the formula: 0.5×length×width^2. […] Tumor volume change was analyzed in Prism using one-way ANOVA. Tumor tissues were analyzed as described in the RT-qPCR, immunofluorescence, TBARS, and lipidomics sections below.\n(§3) We investigated the efficacy of IKE in vivo in male NCG mice bearing SUDHL6 subcutaneous xenografts. […] During the experimental period, mouse weight and tumor volume were measured daily to determine IKE's antitumor effect and possible toxicity. Tumor growth was calculated as the fold change relative to original tumor volume on day 0 before the first dose (FIG. 4C). […]"}, "[2]": {"experiment": "IKE efficacy study, mouse weight", "assay_type": "in vivo, NCG mice", "details": "14 days, starting from day 9", "description": "as §1, §2, §3"}}, "data": [{"compound": "CC(C)Oc1ccc(C(=O)Cn2ccnc2)cc1-n1c(CN2CCN(C(=O)COc3ccc(Cl)cc3)CC2)nc2ccccc2c1=O", "note": "[IKE, Imidazole ketone erastin]", "values": [{"measurement": "tumor growth (tumor volume fold change vs day 0)", "setting": "[1]; 23 mg/kg i.p. once daily", "value": "significant decrease in tumor growth"}, {"measurement": "tumor growth (tumor volume fold change vs day 0)", "setting": "[1]; 40 mg/kg i.p. once daily", "value": "significant decrease in tumor growth"}, {"measurement": "mouse weight", "setting": "[2]; 23 mg/kg daily", "value": "weight loss"}, {"measurement": "mouse weight", "setting": "[2]; 40 mg/kg daily", "value": "weight loss"}]}]}
